Publication PMC5218480 (PLoS ONE, 2017)

System: MV-4-11 cells
Experiment: Gene expression microarray analysis (Affymetrix PrimeView) and GSEA
Assay type: cell-based, human
Design: RFU PODN (11730768_x_at) / Fold change /veh PODN (11730768_x_at) / RFU LINC00158 (11744669_a_at) / Fold change /veh LINC00158 (11744669_a_at) / RFU DUSP10 (11751237_a_at) / Fold change /veh DUSP10 (11751237_a_at) / RFU ID3 (11757404_x_at) / Fold change /veh ID3 (11757404_x_at) / RFU PLEKHG5 (11737974_s_at) / Fold change /veh PLEKHG5 (11737974_s_at) / RFU LRRC4B (11730491_at) / Fold change /veh LRRC4B (11730491_at) / RFU GIMAP4 (11747438_a_at) / Fold change /veh GIMAP4 (11747438_a_at) / RFU KRT8 (11758183_x_at) / Fold change /veh KRT8 (11758183_x_at) / RFU CNN1 (11734310_a_at) / Fold change /veh CNN1 (11734310_a_at) / RFU VPS37D (11726825_at) / Fold change /veh VPS37D (11726825_at) / RFU C10orf10 (11716522_x_at) / Fold change /veh C10orf10 (11716522_x_at) / RFU KIR2DL2 /// KIR2DL4 /// KIR2DL5A /// KIR2DL5B /// KIR2DS1 /// KIR2DS2 /// KIR2DS3 /// KIR2DS4 /// KIR3DL3 /// KIR3DL3 /// KIR3DS1 (11738374_at) / Fold change /veh KIR2DL2 /// KIR2DL4 /// KIR2DL5A /// KIR2DL5B /// KIR2DS1 /// KIR2DS2 /// KIR2DS3 /// KIR2DS4 /// KIR3DL3 /// KIR3DL3 /// KIR3DS1 (11738374_at) / RFU C1QL1 (11718748_at) / Fold change /veh C1QL1 (11718748_at) / RFU TMPRSS4 (11747572_a_at) / Fold change /veh TMPRSS4 (11747572_a_at) / RFU HAMP (11756126_x_at) / Fold change /veh HAMP (11756126_x_at) / RFU RNFT2 (11725882_a_at) / Fold change /veh RNFT2 (11725882_a_at) / RFU NR4A2 (11747474_a_at) / Fold change /veh NR4A2 (11747474_a_at) / RFU ABCC12 (11746883_a_at) / Fold change /veh ABCC12 (11746883_a_at) / RFU TMEM136 (11760407_x_at) / Fold change /veh TMEM136 (11760407_x_at) / RFU CLDN22 /// WWC2 (11732394_at) / Fold change /veh CLDN22 /// WWC2 (11732394_at) / RFU HLA-DPB1 (11760878_x_at) / Fold change /veh HLA-DPB1 (11760878_x_at) / RFU SPINT1 (11716480_a_at) / Fold change /veh SPINT1 (11716480_a_at) / RFU GAP43 (11754022_s_at) / Fold change /veh GAP43 (11754022_s_at) / RFU A4GNT (11735810_at) / Fold change /veh A4GNT (11735810_at) / RFU PRB3 (11715151_x_at) / Fold change /veh PRB3 (11715151_x_at) / RFU TUBB4B (11761932_at) / Fold change /veh TUBB4B (11761932_at) / RFU CAPN14 (11732068_a_at) / Fold change /veh CAPN14 (11732068_a_at) / RFU TMCC2 (11721928_a_at) / Fold change /veh TMCC2 (11721928_a_at) / RFU IRGQ (11745062_a_at) / Fold change /veh IRGQ (11745062_a_at) / RFU FAM174B (11720279_a_at) / Fold change /veh FAM174B (11720279_a_at) / RFU TMPRSS4 (11748680_a_at) / Fold change /veh TMPRSS4 (11748680_a_at) / RFU FAM212B (11763350_a_at) / Fold change /veh FAM212B (11763350_a_at) / RFU PLEKHG5 (11743358_a_at) / Fold change /veh PLEKHG5 (11743358_a_at) / RFU ZSCAN30 (11745921_a_at) / Fold change /veh ZSCAN30 (11745921_a_at) / RFU CMKLR1 (11741424_a_at) / Fold change /veh CMKLR1 (11741424_a_at) / RFU LOC101060620 /// MAPK8IP1 (11723275_at) / Fold change /veh LOC101060620 /// MAPK8IP1 (11723275_at) / RFU SPTSSB (11747773_x_at) / Fold change /veh SPTSSB (11747773_x_at) / RFU PRSS12 (11739890_at) / Fold change /veh PRSS12 (11739890_at) / RFU BIN1 (11741810_x_at) / Fold change /veh BIN1 (11741810_x_at) / RFU WNT11 (11732464_a_at) / Fold change /veh WNT11 (11732464_a_at) / RFU C10orf10 (11716521_a_at) / Fold change /veh C10orf10 (11716521_a_at) / RFU C5orf56 (11738089_at) / Fold change /veh C5orf56 (11738089_at) / RFU CYB561 (11721691_x_at) / Fold change /veh CYB561 (11721691_x_at) / RFU ANKRD19P (11752326_a_at) / Fold change /veh ANKRD19P (11752326_a_at) / RFU OR2T12 /// OR2T33 /// OR2T8 (11738714_s_at) / Fold change /veh OR2T12 /// OR2T33 /// OR2T8 (11738714_s_at) / RFU VCAN (11748164_a_at) / Fold change /veh VCAN (11748164_a_at) / RFU JSRP1 (11732532_at) / Fold change /veh JSRP1 (11732532_at) / RFU KRTAP10-11 (11738290_x_at) / Fold change /veh KRTAP10-11 (11738290_x_at) / RFU MYO3A (11730013_a_at) / Fold change /veh MYO3A (11730013_a_at) / RFU EBF3 (11725865_a_at) / Fold change /veh EBF3 (11725865_a_at) / RFU CAMK2N1 (11719241_x_at) / Fold change /veh CAMK2N1 (11719241_x_at) / RFU C5orf56 (11738088_a_at) / Fold change /veh C5orf56 (11738088_a_at) / RFU OLFML3 (11715873_a_at) / Fold change /veh OLFML3 (11715873_a_at) / RFU LOC100653217 /// NTM (11731650_a_at) / Fold change /veh LOC100653217 /// NTM (11731650_a_at) / RFU MAPK11 (11762145_a_at) / Fold change /veh MAPK11 (11762145_a_at) / RFU FIZ1 (11724087_x_at) / Fold change /veh FIZ1 (11724087_x_at) / RFU OASL (11726364_x_at) / Fold change /veh OASL (11726364_x_at) / RFU SOX15 (11748057_x_at) / Fold change /veh SOX15 (11748057_x_at) / RFU CD79A (11719716_a_at) / Fold change /veh CD79A (11719716_a_at) / RFU HIST1H1D (11736915_at) / Fold change /veh HIST1H1D (11736915_at) / RFU CASKIN2 (11723855_a_at) / Fold change /veh CASKIN2 (11723855_a_at) / RFU LOC730098 (11760151_x_at) / Fold change /veh LOC730098 (11760151_x_at) / RFU OR4N2 (11742367_at) / Fold change /veh OR4N2 (11742367_at) / RFU PRRT2 (11749266_a_at) / Fold change /veh PRRT2 (11749266_a_at) / RFU SNX32 (11753110_a_at) / Fold change /veh SNX32 (11753110_a_at) / RFU CDHR5 (11726645_a_at) / Fold change /veh CDHR5 (11726645_a_at) / RFU RCAN1 (11760418_a_at) / Fold change /veh RCAN1 (11760418_a_at) / RFU FAM167A (11723789_a_at) / Fold change /veh FAM167A (11723789_a_at) / RFU FAM26E (11764081_at) / Fold change /veh FAM26E (11764081_at) / RFU ISYNA1 (11749810_s_at) / Fold change /veh ISYNA1 (11749810_s_at) / RFU ACY1 (11761880_at) / Fold change /veh ACY1 (11761880_at) / RFU 11764098_at / Fold change /veh 11764098_at / RFU SAMD14 (11745864_x_at) / Fold change /veh SAMD14 (11745864_x_at) / RFU NPB (11741838_a_at) / Fold change /veh NPB (11741838_a_at) / RFU TMPRSS6 (11731388_a_at) / Fold change /veh TMPRSS6 (11731388_a_at) / RFU KRTAP10-2 (11738614_at) / Fold change /veh KRTAP10-2 (11738614_at) / RFU ARHGAP8 /// PRR5-ARHGAP8 (11727945_x_at) / Fold change /veh ARHGAP8 /// PRR5-ARHGAP8 (11727945_x_at) / RFU KRTAP5-7 /// NADSYN1 (11734609_at) / Fold change /veh KRTAP5-7 /// NADSYN1 (11734609_at) / RFU RASL12 (11751679_a_at) / Fold change /veh RASL12 (11751679_a_at) / RFU CDKN2B (11736163_a_at) / Fold change /veh CDKN2B (11736163_a_at) / RFU PRF1 (11729649_at) / Fold change /veh PRF1 (11729649_at) / RFU, ZNF638 /// ZNF638-IT1 / Fold change vs veh, ZNF638 /// ZNF638-IT1 / RFU, PANK3 / Fold change vs veh, PANK3 / RFU, SH3YL1 / Fold change vs veh, SH3YL1 / RFU, ZEB2 / Fold change vs veh, ZEB2 / RFU, NRIP1 / Fold change vs veh, NRIP1 / RFU, PTTG1IP / Fold change vs veh, PTTG1IP / RFU, CAPN2 / Fold change vs veh, CAPN2 / RFU, MED14 / Fold change vs veh, MED14 / RFU, SNORA58 / Fold change vs veh, SNORA58 / RFU, C1orf63 / Fold change vs veh, C1orf63 / RFU, LRRFIP1 / Fold change vs veh, LRRFIP1 / RFU, NDUFAF7 / Fold change vs veh, NDUFAF7 / RFU, SLC12A2 / Fold change vs veh, SLC12A2 / RFU, IBTK / Fold change vs veh, IBTK / RFU, ESF1 / Fold change vs veh, ESF1 / Fold change vs veh, TMEM50B / RFU, TAOK1 / Fold change vs veh, TAOK1 / RFU, ACBD3 / Fold change vs veh, ACBD3 / RFU, TMA16 / Fold change vs veh, TMA16 / RFU, RWDD3 / Fold change vs veh, RWDD3 / RFU, BCAT1 / Fold change vs veh, BCAT1 / RFU, EDEM3 / Fold change vs veh, EDEM3 / RFU, TMEM33 / Fold change vs veh, TMEM33 / RFU, WDR75 / Fold change vs veh, WDR75 / RFU, AHCTF1 / Fold change vs veh, AHCTF1 / RFU, TFRC / Fold change vs veh, TFRC / RFU, ZDHHC17 / Fold change vs veh, ZDHHC17 / RFU, NOM1 / Fold change vs veh, NOM1 / RFU, ARL8B / Fold change vs veh, ARL8B / RFU, ZBTB11 / Fold change vs veh, ZBTB11 / RFU, TAMM41 / Fold change vs veh, TAMM41 / RFU, KIAA1704 /// LOC100996395 / Fold change vs veh, KIAA1704 /// LOC100996395 / RFU, ING1 / Fold change vs veh, ING1 / RFU, TRMT61B / Fold change vs veh, TRMT61B / RFU, FUBP3 / Fold change vs veh, FUBP3 / RFU, TP53 / Fold change vs veh, TP53 / RFU, TNKS2 / Fold change vs veh, TNKS2 / RFU, ZFP14 / Fold change vs veh, ZFP14 / RFU, ACTR2 / Fold change vs veh, ACTR2 / RFU, PPP3R1 / Fold change vs veh, PPP3R1 / RFU, PIK3R1 / Fold change vs veh, PIK3R1 / RFU, HNRNPA1 / Fold change vs veh, HNRNPA1 / RFU, RNF170 / Fold change vs veh, RNF170 / RFU, ZNF28 / Fold change vs veh, ZNF28 / RFU, RNGTT / Fold change vs veh, RNGTT / RFU, OGT / Fold change vs veh, OGT / RFU, BRD1 / Fold change vs veh, BRD1 / RFU, MARS / Fold change vs veh, MARS / RFU, ZNF655 / Fold change vs veh, ZNF655 / RFU, FAHD1 / Fold change vs veh, FAHD1 / RFU, BDP1 / Fold change vs veh, BDP1 / RFU, LRRCC1 / Fold change vs veh, LRRCC1 / RFU, ARID1A / Fold change vs veh, ARID1A / RFU, ZNF146 / Fold change vs veh, ZNF146 / RFU, ZNF330 / Fold change vs veh, ZNF330 / RFU, GPN3 / Fold change vs veh, GPN3 / RFU, C9orf123 / Fold change vs veh, C9orf123 / RFU, N4BP2L2 / Fold change vs veh, N4BP2L2 / RFU, ARFIP1 / Fold change vs veh, ARFIP1 / RFU, FAM179B / Fold change vs veh, FAM179B / RFU, BCL10 / Fold change vs veh, BCL10 / RFU, UHRF1BP1L / Fold change vs veh, UHRF1BP1L / RFU, BET1 / Fold change vs veh, BET1 / RFU, CNOT2 / Fold change vs veh, CNOT2 / RFU, ZNF268 / Fold change vs veh, ZNF268 / Fold change vs veh, ZNF507 / RFU, DGCR2 / Fold change vs veh, DGCR2 / RFU, WDSUB1 / Fold change vs veh, WDSUB1 / Fold change vs veh, HSP90B1 /// MIR3652 / RFU, ADSS / Fold change vs veh, ADSS / RFU, GK / Fold change vs veh, GK / RFU, ZNF148 / Fold change vs veh, ZNF148 / RFU, TAF9 / Fold change vs veh, TAF9 / RFU, SLC1A5 / Fold change vs veh, SLC1A5 / RFU, SLMO2 / Fold change vs veh, SLMO2 / RFU, ABCC4 / Fold change vs veh, ABCC4 / RFU, LOC101060439 /// RAP1B / Fold change vs veh, LOC101060439 /// RAP1B / RFU, RFX7 / Fold change vs veh, RFX7 / RFU, GTPBP10 / Fold change vs veh, GTPBP10 / RFU, CNEP1R1 / Fold change vs veh, CNEP1R1 / RFU, BIVM-ERCC5 /// ERCC5 / Fold change vs veh, BIVM-ERCC5 /// ERCC5 / RFU, ILF3 / Fold change vs veh, ILF3 / RFU 11762660_at / Fold change /veh 11762660_at / RFU VCAN (11757783_s_at) / Fold change /veh VCAN (11757783_s_at) / RFU DDX43 (11728927_at) / Fold change /veh DDX43 (11728927_at) / RFU KRT8 (11758188_x_at) / Fold change /veh KRT8 (11758188_x_at) / RFU NKD1 (11759106_at) / Fold change /veh NKD1 (11759106_at) / RFU SRD5A1 (11742802_a_at) / Fold change /veh SRD5A1 (11742802_a_at) / RFU TPSAB1 /// TPSB2 (11721975_s_at) / Fold change /veh TPSAB1 /// TPSB2 (11721975_s_at) / RFU GSTM3 (11746129_a_at) / Fold change /veh GSTM3 (11746129_a_at) / RFU IL23R (11737362_x_at) / Fold change /veh IL23R (11737362_x_at) / RFU TMEM51 (11727254_a_at) / Fold change /veh TMEM51 (11727254_a_at) / RFU PIWIL2 (11732686_x_at) / Fold change /veh PIWIL2 (11732686_x_at) / RFU ORM1 (11744905_x_at) / Fold change /veh ORM1 (11744905_x_at) / RFU CCDC152 (11743942_at) / Fold change /veh CCDC152 (11743942_at) / RFU ECM1 (11717891_a_at) / Fold change /veh ECM1 (11717891_a_at) / RFU IL23R (11748794_a_at) / Fold change /veh IL23R (11748794_a_at) / RFU TNFAIP8L3 (11732012_x_at) / Fold change /veh TNFAIP8L3 (11732012_x_at) / RFU MBOAT4 (11741988_at) / Fold change /veh MBOAT4 (11741988_at) / RFU 11764193_at / Fold change /veh 11764193_at / RFU TMEM53 (11763286_at) / Fold change /veh TMEM53 (11763286_at) / RFU MAGEB2 (11727129_at) / Fold change /veh MAGEB2 (11727129_at) / RFU TMEM200A (11744735_a_at) / Fold change /veh TMEM200A (11744735_a_at) / RFU CCDC152 (11751479_a_at) / Fold change /veh CCDC152 (11751479_a_at) / RFU FAM211A (11726209_a_at) / Fold change /veh FAM211A (11726209_a_at) / RFU RGS16 (11746705_a_at) / Fold change /veh RGS16 (11746705_a_at) / RFU VCAN (11755009_s_at) / Fold change /veh VCAN (11755009_s_at) / RFU RHOB (11743442_s_at) / Fold change /veh RHOB (11743442_s_at) / RFU RGS16 (11720943_a_at) / Fold change /veh RGS16 (11720943_a_at) / RFU RGS16 (11720944_at) / Fold change /veh RGS16 (11720944_at) / RFU, VPS4B / Fold change vs veh, VPS4B / RFU, CREB1 / Fold change vs veh, CREB1 / RFU, DNAJC13 / Fold change vs veh, DNAJC13 / RFU, GNAQ / Fold change vs veh, GNAQ / RFU, CDK5R1 / Fold change vs veh, CDK5R1 / RFU, ZRANB3 / Fold change vs veh, ZRANB3 / RFU, CUL4A / Fold change vs veh, CUL4A / RFU, CCNY / Fold change vs veh, CCNY / RFU, UFL1 / Fold change vs veh, UFL1 / RFU, COG3 / Fold change vs veh, COG3 / RFU, DIAPH2 / Fold change vs veh, DIAPH2 / RFU, SKA2 / Fold change vs veh, SKA2 / RFU, AFF3 / Fold change vs veh, AFF3 / RFU, LMF1 / Fold change vs veh, LMF1 / RFU, IPO11 / Fold change vs veh, IPO11 / RFU, DFFB / Fold change vs veh, DFFB / RFU, FOXP1 / Fold change vs veh, FOXP1 / RFU, CARD8 / Fold change vs veh, CARD8 / RFU, STRN3 / Fold change vs veh, STRN3 / RFU, ADK / Fold change vs veh, ADK / RFU, RASSF2 / Fold change vs veh, RASSF2 / RFU, WIPF1 / Fold change vs veh, WIPF1 / RFU, LARP1B / Fold change vs veh, LARP1B / RFU, RASA1 / Fold change vs veh, RASA1 / RFU, RB1 / Fold change vs veh, RB1 / RFU, PPFIA1 / Fold change vs veh, PPFIA1 / RFU, MAT2A / Fold change vs veh, MAT2A / RFU, CCT5 / Fold change vs veh, CCT5 / RFU, WDR92 / Fold change vs veh, WDR92 / RFU, CUX1 / Fold change vs veh, CUX1 / RFU, TTC7A / Fold change vs veh, TTC7A / RFU, TMEM135 / Fold change vs veh, TMEM135 / RFU, DEPTOR / Fold change vs veh, DEPTOR / RFU, CPM / Fold change vs veh, CPM / RFU, DNAJB6 / Fold change vs veh, DNAJB6 / RFU, CACNA2D3 / Fold change vs veh, CACNA2D3 / RFU, DTX4 / Fold change vs veh, DTX4 / RFU, TFCP2 / Fold change vs veh, TFCP2 / RFU, GMCL1 /// GMCL1P1 / Fold change vs veh, GMCL1 /// GMCL1P1 / RFU, AEBP2 / Fold change vs veh, AEBP2 / RFU, SNHG1 /// SNORD22 /// SNORD25 /// SNORD26 /// SNORD27 /// SNORD28 /// SNORD29 /// SNORD31 / Fold change vs veh, SNHG1 /// SNORD22 /// SNORD25 /// SNORD26 /// SNORD27 /// SNORD28 /// SNORD29 /// SNORD31 / Fold change (Aza/veh), C12orf56 (ProbeSet 11735607_a_at) / Fold change (ACY-1035/veh), C12orf56 (ProbeSet 11735607_a_at) / Fold change (Aza/veh), FGFR1OP (ProbeSet 11751329_s_at) / Fold change (ACY-1035/veh), FGFR1OP (ProbeSet 11751329_s_at) / Fold change (Aza/veh), VPS36 (ProbeSet 11739960_a_at) / Fold change (ACY-1035/veh), VPS36 (ProbeSet 11739960_a_at) / RFU SYPL1 (11715823_x_at) / Fold change /veh SYPL1 (11715823_x_at) / RFU IGFBP7 (11715501_s_at) / Fold change /veh IGFBP7 (11715501_s_at) / RFU REEP3 (11722064_at) / Fold change /veh REEP3 (11722064_at) / RFU IGLL1 (11728026_x_at) / Fold change /veh IGLL1 (11728026_x_at): dose or concentration left out as unconfirmed
Settings: ProbeSet 11755070_a_at; LIST D

Nc1ccc(-c2cccs2)cc1NC(=O)c1ccc2c(c1)cc(C1CC1)n2CCN1CCOCC1 [ACY-1035] was tested, and the “Fold change vs veh, CARD8” value was 0.85.
